Source: US20260224714A1, “CYCLING LYSOSOMAL TARGETING ANTIBODY CONJUGATES” (Lycia Therapeutics, Inc., priority 2023, published 2026)

Assays:
Type in all cases: cell-based
[1] = tested on: HepG2 cells; assay: Externalization of conjugates from a cell following internalization (cycling), high-throughput format (Example 11); conditions: 50 nM conjugate 1 hour, stringent washes, Alexa Fluor 647-labelled a-human IgG 1 hour, FACS, normalized to unconjugated parent protein, average of two replicate wells
Protocol: (§1) The following experiments were performed with HepG2 hepatocellular carcinoma cells, grown in Eagle's Minimal Essential Media (EMEM) supplemented with 10% FBS and penicillin/streptomycin.
The method was also adapted to a high-throughput format. In this assay, 25,000 HepG2 cells were plated in 96-well plates 48 hours before performing the experiment. The day of the experiment, cells were incubated with conjugate at indicated concentrations for 1 hour. Cells were then placed on ice to prevent trafficking/recycling during wash steps, and washed once with DPBS, once with sodium acetate buffer (20 mM, 150 mM NaCl, pH 5.2), once with Earle's Balanced Salt Solution (EBSS) adjusted to pH 2.5, and once again with DPBS, to remove conjugate from media and cell surface. Afterwards, 100 ul of prewarmed (to 37° C.) EMEM with 1 μg/ml of human a-IgG antibody conjugated to Alexa Fluor647 fluorophores was added to cells for 1 hour before washing with DPBS and detaching with 0.25% Trypsin/EDTA. Cells were pelleted in 96-well conical bottom plates, washed once with FACS Buffer with BSA (Rockland Immunochemicals), resuspended FACS Buffer with BSA and median AF647 intensity was analyzed by flow cytometry. The amount of conjugate capable of cycling to the cell surface (being externalized from the cell) and binding to the Alexa Fluor647 labelled α-IgG was measured by analyzing median cellular 647 fluorescence intensity by flow cytometry. […]. Reported values are the average of the values of two replicate wells.

[2] = tested on: LysoLight-labelled human IgE; assay: Lysosomal degradation of LysoLight-labelled IgE in HepG2 cells, live cell imaging (Example 7); conditions: equimolar conjugate:LysoLight IgE, area under the curve of deep red fluorescence over three days, normalized to unconjugated parent protein
Protocol: as §1
HepG2 cells (15,000) were plated in 96-well plates 72 hours before performing the experiment. On the day of the experiment, indicated the conjugate was diluted in fresh EMEM and mixed with an equimolar stock of LysoLight-labelled human IgE (Enzo Life Sciences, BPD-DIA-HE1), at 200 nM of each compound. The precomplexed conjugate:IgE mixture was incubated at room temperature for 30 minutes. During the precomplexing step, media from HepG2 was removed, and 40 ul of EMEM with 1/100 Fc Receptor Blocking Solution (Biolegend Human TruStain FcX, 422302) was added. Cells incubated in the receptor blocking solution for 10 minutes while making serial dilutions (1:3) of conjugate:IgE stock solution in EMEM. 40 ul of the conjugate:IgE mixture in EMEM was then added to cells (five dilutions, with final concentrations ranging from 100 nM to 1.23 nM). Cells were placed in an IncuCyte Live-Cell Analysis System (Sartorius) for long term live cell imaging analysis (10× magnification, 3 images per well). One hour after addition of compound, image acquisition to measure red fluorescence from the LysoLight probe was started, with further Images collected every hour for 72 hours. Fluorescence of the LysoLight probe only occurs when cleaved by lysosomal cathepsin proteases, confirming lysosomal delivery and degradation of target. After 72 hours, mean red fluorescence was measured for each time point, and the area under the curve of fluorescence overtime was used to measure total degradation over the 3-day time period.

[3] = tested on: Alexa Fluor647 labelled human IgE; assay: Uptake assay: internalization of Alexa Fluor 647 labelled IgE in ASGPR1/2 KO HepG2 cells (Example 6); conditions: equimolar conjugate and AF647 IgE, normalized to unconjugated parent protein
Protocol: as §1
(§2) HepG2 cells (25,000) were plated in 96-well plates 48 hours before the experiment was performed. On the day of the experiment, indicated the conjugate was mixed with an equimolar stock of Alexa Fluor647 labelled human IgE (Enzo Life Sciences, BPD-DIA-HE 1) in fresh EMEM as a 600 nM stock. The precomplexed conjugate:IgE mixture was incubated at room temperature for 30 minutes. During the precomplexing step, media from HepG2 was removed, and 40 ul of EMEM with 1/100 Fc Receptor Blocking Solution (Biolegend Human TruStain FcX, 422302) was added. Cells incubated in the receptor blocking solution for 10 minutes while making serial dilutions (1:3) of conjugate:IgE stock solution in EMEM. 40 ul of the conjugate:IgE mixture in EMEM was then added to cells (six dilutions, with final concentrations ranging from 300 nM to 1.23 nM) for 2 hours before washing with DPBS and detaching with 0.25% Trypsin/EDTA. Cells were pelleted in 96-well conical bottom plates, washed once with FACS Buffer with BSA (Rockland Immunochemicals), and resuspended in FACS Buffer with BSA. Uptake of fluorescently labelled IgE was measured by analyzing median cellular AF647 intensity by flow cytometry.
(§3) Cells were incubated with equimolar ratio of conjugate and AF647 IgE at indicated concentrations, with data normalized to unconjugated parent protein (Oma S35HWY57H-LC).

[4] = tested on: human IgE; assay: Degradation of initial and subsequent dose of target in HepG2 cells (Example 12, Table 30); conditions: normalized to unconjugated; for Normalized Fluorescence Post Wash Median Green: after wash, probe-conjugated IgE added for 4 hours, subsequent dose of target; for Normalized Fluorescence Precomplex Median Deep Red: precomplexed equimolar conjugate:IgE (cathepsin-cleavable quenched fluorescent probe) added for 2 hours, initial dose of target
Protocol: as §1
HepG2 cells (25,000) were plated in 96-well plates 48 hours before performing the experiment. On the day of the experiment, indicated conjugate was diluted in fresh EMEM as a 2× stock, and mixed with an equimolar stock of human IgE (Enzo Life Sciences, BPD-DIA-HE 1) conjugated to a cathepsin-cleavable quenched fluorescent probe. The precomplexed conjugate:IgE mixture was incubated at 37 degrees Celsius for 30 minutes. Media from HepG2 was removed, and conjugate:IgE mixture in EMEM was added to cells for 2 hours. Cells were then placed on ice to prevent trafficking/recycling during wash steps, and washed once with DPBS, once with sodium acetate buffer (20 mM, 150 mM NaCl, pH 5.2), once with Earle's Balanced Salt Solution (EBSS) adjusted to pH 2.5, and once again with DPBS, to remove conjugate from media and cell surface. Afterwards, 100 ul of prewarmed (to 37 degrees Celsius) EMEM with cathepsin-cleavable quenched fluorescent probe-conjugated IgE was added to cells for 4 hours before washing with DPBS and detaching with 0.25% Trypsin/EDTA. Cells were pelleted in 96-well conical bottom plates, washed once with FACS Buffer with BSA (Rockland Immunochemicals), resuspended FACS Buffer with BSA and median 488 and 647 intensity was analyzed by flow cytometry. Delivery of labelled IgE to the lysosome and subsequent cleavage of initial precomplexed IgE was measured by analyzing median cellular 647 intensity, while cleavage of the post wash addition of IgE, which should only be degraded by recycling conjugates which released the first round of precomplexed IgE, was analyzed by median cellular 488 intensity. HepG2 cells were treated with human IgE (Enzo Life Sciences, BPD-DIA-HE1) conjugated to a cathepsin-cleavable quenched deep red (647) fluorescent probe precomplexed to conjugate fortwo hours, then washed, and fresh media with IgE conjugated to a green (488) cathepsin-cleavable fluorescent probe was then added without conjugate. […] Fluorescence values were measured by FACS and normalized to unconjugated parent protein. Reported values are the average of the values of two replicate wells.

[5] = tested on: Alexa Fluor647 labelled human IgE; assay: Uptake assay: internalization of Alexa Fluor 647 labelled IgE in wild type HepG2 cells (Example 6); conditions: equimolar conjugate and AF647 IgE, 2 hours, median cellular AF647 intensity by flow cytometry, normalized to unconjugated parent protein
Protocol: as §1, §2, §3

[6] = tested on: recombinant IgE; assay: Degradation of super-stoichiometric levels of target in HepG2 cells (Example 13, Table 31); conditions: 1 nM conjugate and 25 nM IgE for three days, (A-B)/C IgE depleted relative to conjugate, average of two replicate wells
Protocol: as §1
For evaluation of compounds in a high throughput format, 25,000 HepG2 cells were plated in a 96-well plate. The following day, 50 ul of 1 nM conjugate and 25 nM recombinant IgE in EMEM were added to the cells. 50 ul of the initial stock of conjugate:IgE was saved to quantify for an initial time point. Three days later, the media was collected from cells, and both initial and 72 hour time points were quantified for IgE concentration using the MSD assay.
HepG2 cells were incubated in media containing 1 nM conjugate and 25 nM IgE for three days. Concentrations of IgE at beginning and end of experiment were quantified by ELISA-based assay. Molar equivalents of IgE depleted relative to conjugate added are shown, calculated as (A-B)/C, where A is the initial concentration of IgE, B is the concentration of IgE at day three, and C is the concentration of conjugate. Reported values are the average of the values of two replicate wells.

Structure (SMILES) | Normalized Fluorescence [1] | Normalized Fluorescence 3.7 nM [2] | Normalized Fluorescence 100 nM [2] | Normalized Fluorescence 100 nM ASGPR KO [3] | Normalized Fluorescence Post Wash Median Green [4] | Normalized Fluorescence Precomplex Median Deep Red [4] | Normalized Fluorescence 3.7 nM WT [5] | Normalized Fluorescence 100 nM WT [5] | Average Degradation (Molar equivalents) [6] [Molar equivalents]
CC(=O)N[C@@H]1[C@@H](O)[C@@H](O)[C@@H](CO)O[C@@H]1CCCOCCOCCNC(=O)NCCCC(CCCNC(=O)NCCOCCOCCC[C@H]1O[C@H](CO)[C@H](O)[C@H](O)[C@H]1NC(C)=O)(CCCNC(=O)NCCOCCOCCC[C@H]1O[C@H](CO)[C@H](O)[C@H](O)[C@H]1NC(C)=O)NC(=O)NCCOCCOCCOCCNC(=O)c1ccc(N2C(=O)C=CC2=O)cc1 [Compound 2314] | 40.5 | 13.9 | 3.9 | 1.0 | 3.5 | 3.6 | 69.0 | 265.7 | 6.5
CC(=O)N[C@@H]1[C@@H](O)[C@@H](O)[C@@H](CO)O[C@@H]1CCCOCCOCCNC(=O)NCCCC(CCCNC(=O)NCCOCCOCCC[C@H]1O[C@H](CO)[C@H](O)[C@H](O)[C@H]1NC(C)=O)(CCCNC(=O)NCCOCCOCCC[C@H]1O[C@H](CO)[C@H](O)[C@H](O)[C@H]1NC(C)=O)NC(=O)NCCOCCOCCOCCNS(=O)(=O)c1ccc(N2C(=O)C=CC2=O)cc1 [Compound 2315] | 48.8 | 15.6 | 4.0 | 1.1 | 3.1 | 3.3 | 77.7 | 275.7 | 4.5
CC(=O)N[C@@H]1[C@@H](O)[C@@H](O)[C@@H](CO)O[C@@H]1CCCOCCOCCNC(=O)NCCCC(CCCNC(=O)NCCOCCOCCC[C@H]1O[C@H](CO)[C@H](O)[C@H](O)[C@H]1NC(C)=O)(CCCNC(=O)NCCOCCOCCC[C@H]1O[C@H](CO)[C@H](O)[C@H](O)[C@H]1NC(C)=O)NC(=O)NCCOCCOCCOCCN(C)C(=O)CBr [Compound 2316] | 45.7 | 13.4 | 3.7 | 1.1 | 3.5 | 3.8 | 68.4 | 314.3 | 5.7
CC(=O)N[C@@H]1[C@@H](O)[C@@H](O)[C@@H](CO)O[C@@H]1CCCCCOCCOCCNC(=O)NCCCOCC(COCCCNC(=O)NCCOCCOCCCCC[C@@H]1O[C@@H](CO)[C@@H](O)[C@@H](O)[C@@H]1NC(C)=O)(COCCCNC(=O)NCCOCCOCCCCC[C@H]1O[C@H](CO)[C@H](O)[C@H](O)[C@H]1NC(C)=O)NC(=O)CCOCCOCCOCCNC(=O)c1ccc(N2C(=O)C=CC2=O)cc1 (stereo partly drawn) [Compound 2317] | 48.8 | 15.2 | 4.2 | 1.1 | 3.7 | 3.6 | 76.2 | 255.2 | 4.0
CC(=O)N[C@@H]1[C@@H](O)[C@@H](O)[C@@H](CO)O[C@@H]1CCCOCCOCCNC(=O)NCCCC(C)(CCCNC(=O)NCCOCCOCCC[C@H]1O[C@H](CO)[C@H](O)[C@H](O)[C@H]1NC(C)=O)NC(=O)NCCOCCOCCOCCNC(=O)c1ccc(N2C(=O)C=CC2=O)cc1 (stereo partly drawn) [Compound 2318, N,N′-((2R,2′R,3R,3′R,4R,4′R,5R,5′R,6R,6′R)-(16-(3-(1-(4-(2,5-dioxo-2,5-dihydro-1H-pyrrol-1-yl)phenyl)-1-oxo-5,8,11-trioxa-2-azatridecan-13-yl)ureido)-16-methyl-11,21-dioxo-4,7,25,28-tetraoxa-10,12,20,22-tetraazahentriacontane-1,31-diyl)bis(4,5-dihydroxy-6-(hydroxymethyl)tetrahydro-2H-pyran-2,3-diyl))diacetamide] | 27.4 | 4.1 | 2.1 | 1.0 | 2.0 | 2.4 | 44.1 | 159.1 | 4.2
